“Also recorded” adds a separate entry of the source. Where two headings read alike, the source gives them in different places.
Tests used:
TRPV1 [1] = biological target: T1, TRPV1 (Homo sapiens, UniProt Q8NER1); test: TRP selectivity, hTRPV1/CHO, Capsaicin as agonist; format: cell-based; details: agonist Capsaicin (1 µM)
T1 construct: expressed in transfected cells
Method: (§1) Human lung fibroblast cells, CCD19-Lu (ATCC CCL-210) were obtained from American Type Culture Collection (ATCC; Rockville, MD, USA) and cultured in MEM supplemented with 10% FBS. Human pulmonary alveolar epithelial cell line A549 (ATCC CCL-185) was also obtained from ATCC and maintained in DMEM F-12 supplemented with 10% FBS. Both the cell types were cultured at 37°C in humidified air containing 5% CO2. Chinese hamster ovary (CHO) cells stably expressing human TRPA1 (hTRPA1/CHO), TRPV1 (hTRPV1/CHO), TRPV3 (hTRPV3/CHO), TRPV4 (hTRPV4/CHO and TRPM8 (hTRPM8/CHO were generated in-house and maintained in DMEM F-12 supplemented with 10% FBS and G418.
(§2) Fluorimetric and radiometric Ca^+2 influx assay was performed as described earlier. GRC 17536, GRC 17770, compound 7 or GRC 6211 was added to the cells 15 minutes prior to addition of agonist. Citric acid stock solution (1 M) was prepared in dH2O. Subsequent dilutions were made in Ca^+2, Mg^+2 free PBS (pH 7.3). No significant change in pH was observed upto 10 mM citric acid. At 30 mM concentration of citric acid, the pH of the solution dropped to 5.5. TLR ligands - LPS (10 µg/ml, TLR4), loxoribine (10 µM, TLR7) and ssRNA40 (1 µg/ml, TLR8) were dissolved in media and added to the cells for 16–18 hours. […]

TRPV3 = biological target: T2, TRPV3 (Homo sapiens, UniProt Q8NET8); test: TRP selectivity, hTRPV3/CHO, 2-APB as agonist; format: cell-based; details: agonist 2-APB (1 mM)
T2 construct: expressed in transfected cells
T2 sequence (Q8NET8 1-790): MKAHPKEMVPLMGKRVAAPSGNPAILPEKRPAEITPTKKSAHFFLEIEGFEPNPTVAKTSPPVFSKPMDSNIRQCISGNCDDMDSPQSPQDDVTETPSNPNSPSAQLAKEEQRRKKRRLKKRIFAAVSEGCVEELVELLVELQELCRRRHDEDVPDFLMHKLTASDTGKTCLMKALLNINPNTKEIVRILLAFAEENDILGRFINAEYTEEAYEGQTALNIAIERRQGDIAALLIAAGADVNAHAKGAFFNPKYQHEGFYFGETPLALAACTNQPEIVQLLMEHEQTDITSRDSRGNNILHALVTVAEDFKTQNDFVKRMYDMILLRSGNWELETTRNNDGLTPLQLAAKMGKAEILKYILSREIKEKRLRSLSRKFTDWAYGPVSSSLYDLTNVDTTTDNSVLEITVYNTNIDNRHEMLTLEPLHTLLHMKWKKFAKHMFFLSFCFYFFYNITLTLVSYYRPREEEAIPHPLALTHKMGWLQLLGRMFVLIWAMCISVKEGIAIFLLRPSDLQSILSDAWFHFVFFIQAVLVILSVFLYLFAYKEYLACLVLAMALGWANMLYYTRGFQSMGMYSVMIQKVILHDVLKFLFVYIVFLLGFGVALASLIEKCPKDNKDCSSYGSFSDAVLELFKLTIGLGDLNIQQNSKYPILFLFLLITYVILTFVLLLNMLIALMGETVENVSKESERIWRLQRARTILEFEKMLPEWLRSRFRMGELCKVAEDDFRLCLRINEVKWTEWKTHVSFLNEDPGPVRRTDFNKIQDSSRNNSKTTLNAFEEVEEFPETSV
Method: as §1, §2

TRPV4 = biological target: T3, TRPV4 (Homo sapiens, UniProt Q9HBA0); test: TRP selectivity, hTRPV4/CHO, 4α-PDD as agonist; format: cell-based; details: agonist 4α-PDD (30 µM)
T3 construct: expressed in transfected cells
T3 sequence (Q9HBA0 whole entry): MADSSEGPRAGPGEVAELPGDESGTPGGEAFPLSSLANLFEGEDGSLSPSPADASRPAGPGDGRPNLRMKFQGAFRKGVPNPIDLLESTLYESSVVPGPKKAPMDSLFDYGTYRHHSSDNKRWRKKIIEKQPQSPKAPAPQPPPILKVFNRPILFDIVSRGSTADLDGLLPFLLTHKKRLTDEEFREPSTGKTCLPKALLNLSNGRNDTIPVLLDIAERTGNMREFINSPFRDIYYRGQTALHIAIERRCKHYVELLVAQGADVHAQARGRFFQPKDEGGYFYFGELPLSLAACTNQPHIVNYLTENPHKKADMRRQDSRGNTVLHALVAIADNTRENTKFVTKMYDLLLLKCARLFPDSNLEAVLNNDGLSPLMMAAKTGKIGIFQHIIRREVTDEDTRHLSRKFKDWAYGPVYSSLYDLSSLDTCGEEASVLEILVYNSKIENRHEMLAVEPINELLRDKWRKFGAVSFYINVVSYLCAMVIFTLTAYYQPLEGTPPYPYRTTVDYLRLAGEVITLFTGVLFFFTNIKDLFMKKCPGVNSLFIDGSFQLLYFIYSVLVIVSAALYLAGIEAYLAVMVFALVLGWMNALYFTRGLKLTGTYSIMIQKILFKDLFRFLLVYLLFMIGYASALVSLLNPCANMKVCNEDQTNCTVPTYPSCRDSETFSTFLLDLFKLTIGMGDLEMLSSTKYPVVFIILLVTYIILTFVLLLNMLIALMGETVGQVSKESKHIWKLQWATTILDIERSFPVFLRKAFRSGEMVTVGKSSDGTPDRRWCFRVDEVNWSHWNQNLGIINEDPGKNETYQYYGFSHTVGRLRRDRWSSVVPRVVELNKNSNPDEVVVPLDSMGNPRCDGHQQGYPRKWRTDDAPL
Method: as §1, §2

TRPM8 = biological target: T4, TRPM8 (Homo sapiens, UniProt Q7Z2W7); test: TRP selectivity, hTRPM8/CHO, Icilin as agonist; format: cell-based; details: agonist Icilin (250 nM)
T4 construct: expressed in transfected cells
T4 sequence (Q7Z2W7 whole entry): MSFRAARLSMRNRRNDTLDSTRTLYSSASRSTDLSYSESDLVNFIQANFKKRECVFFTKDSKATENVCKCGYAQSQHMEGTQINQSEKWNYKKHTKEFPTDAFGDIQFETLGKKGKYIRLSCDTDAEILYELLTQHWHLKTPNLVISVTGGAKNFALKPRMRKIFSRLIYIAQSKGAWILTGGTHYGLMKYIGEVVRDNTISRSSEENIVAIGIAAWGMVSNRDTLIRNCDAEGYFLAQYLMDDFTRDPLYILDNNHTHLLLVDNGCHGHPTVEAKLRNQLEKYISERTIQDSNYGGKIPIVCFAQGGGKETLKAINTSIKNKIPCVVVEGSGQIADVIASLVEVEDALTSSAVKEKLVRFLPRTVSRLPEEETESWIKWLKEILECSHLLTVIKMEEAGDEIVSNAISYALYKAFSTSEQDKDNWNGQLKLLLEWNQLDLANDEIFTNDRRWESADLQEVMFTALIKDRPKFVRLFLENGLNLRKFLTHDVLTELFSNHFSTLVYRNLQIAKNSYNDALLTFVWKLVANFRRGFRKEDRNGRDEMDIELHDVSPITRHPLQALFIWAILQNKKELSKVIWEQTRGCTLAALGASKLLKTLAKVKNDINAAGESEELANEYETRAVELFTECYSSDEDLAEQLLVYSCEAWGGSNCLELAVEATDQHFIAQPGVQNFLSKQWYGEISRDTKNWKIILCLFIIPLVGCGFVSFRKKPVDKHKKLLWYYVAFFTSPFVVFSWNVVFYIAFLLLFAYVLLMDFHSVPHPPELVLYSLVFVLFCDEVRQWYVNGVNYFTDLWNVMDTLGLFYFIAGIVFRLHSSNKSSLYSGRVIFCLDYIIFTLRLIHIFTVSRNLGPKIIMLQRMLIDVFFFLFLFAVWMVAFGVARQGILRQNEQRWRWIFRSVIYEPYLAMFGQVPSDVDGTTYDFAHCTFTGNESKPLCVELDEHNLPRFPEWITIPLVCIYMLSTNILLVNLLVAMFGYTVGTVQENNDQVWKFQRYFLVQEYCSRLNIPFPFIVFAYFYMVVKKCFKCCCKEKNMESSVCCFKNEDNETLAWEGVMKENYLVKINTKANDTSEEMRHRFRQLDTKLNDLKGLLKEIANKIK
Method: as §1, §2

[2] = tested on: citric acid induced cough response; test: Citric acid induced conscious cough model; format: in vivo, guinea pig; details: 2 h before citric acid aerosol (0.4 M); for Inhibition of cough compared to vehicle: coughs recorded 10 minutes
Method: Male Hartley guinea pigs (200–600 g, Harlan, UK) were acclimatized in cages (20–22°C, with a light/dark cycle of 12/12 hours) before beginning of the experiments and were maintained on an ad lib standard guinea pig pellet diet and water containing dietary amounts of ascorbic acid.
Cough was detected both by pressure change and by sound and recorded with a Buxco cough analyzer (Buxco, Wilmington, NC, USA) as described earlier. Guinea pigs were randomly assigned to various test groups and were treated with different doses of GRC 17536 or Dextromethorphan i.p. before tussive challenge. The Vehicle control group received only 0.5% methyl cellulose. Two hours after i.p. administration of vehicle or test compounds, animals were placed in individual whole body plethysmographs and were exposed to citric acid aerosol (0.4 M) and the incidences of cough were recorded for 10 minutes with the help of Buxco cough analyzer.
For in vitro experiments, data was analyzed using GraphPad Prism 3.0 (GraphPad Software Inc. San Diego, CA, USA). For in vivo experiment, data from the treatment groups were compared with the control group. Mean values were statistically analyzed by one-way analysis of variance (ANOVA) followed by the Dunnett's Multiple Comparisons Test to evaluate significant differences between groups.

[3] = Plasma concentration in the cough model; format: in vivo; details: at the EDmax dose (∼89% suppression of cough), guinea pig, i.p.
TRPA1 [4] = biological target: T5, TRPA1 (Homo sapiens, UniProt O75762); set-up: method as in PMID 21848366; details: CCD19-Lu cells; read-out: IC50 with AITC as agonist; cited from earlier work
T5 sequence (O75762 whole entry): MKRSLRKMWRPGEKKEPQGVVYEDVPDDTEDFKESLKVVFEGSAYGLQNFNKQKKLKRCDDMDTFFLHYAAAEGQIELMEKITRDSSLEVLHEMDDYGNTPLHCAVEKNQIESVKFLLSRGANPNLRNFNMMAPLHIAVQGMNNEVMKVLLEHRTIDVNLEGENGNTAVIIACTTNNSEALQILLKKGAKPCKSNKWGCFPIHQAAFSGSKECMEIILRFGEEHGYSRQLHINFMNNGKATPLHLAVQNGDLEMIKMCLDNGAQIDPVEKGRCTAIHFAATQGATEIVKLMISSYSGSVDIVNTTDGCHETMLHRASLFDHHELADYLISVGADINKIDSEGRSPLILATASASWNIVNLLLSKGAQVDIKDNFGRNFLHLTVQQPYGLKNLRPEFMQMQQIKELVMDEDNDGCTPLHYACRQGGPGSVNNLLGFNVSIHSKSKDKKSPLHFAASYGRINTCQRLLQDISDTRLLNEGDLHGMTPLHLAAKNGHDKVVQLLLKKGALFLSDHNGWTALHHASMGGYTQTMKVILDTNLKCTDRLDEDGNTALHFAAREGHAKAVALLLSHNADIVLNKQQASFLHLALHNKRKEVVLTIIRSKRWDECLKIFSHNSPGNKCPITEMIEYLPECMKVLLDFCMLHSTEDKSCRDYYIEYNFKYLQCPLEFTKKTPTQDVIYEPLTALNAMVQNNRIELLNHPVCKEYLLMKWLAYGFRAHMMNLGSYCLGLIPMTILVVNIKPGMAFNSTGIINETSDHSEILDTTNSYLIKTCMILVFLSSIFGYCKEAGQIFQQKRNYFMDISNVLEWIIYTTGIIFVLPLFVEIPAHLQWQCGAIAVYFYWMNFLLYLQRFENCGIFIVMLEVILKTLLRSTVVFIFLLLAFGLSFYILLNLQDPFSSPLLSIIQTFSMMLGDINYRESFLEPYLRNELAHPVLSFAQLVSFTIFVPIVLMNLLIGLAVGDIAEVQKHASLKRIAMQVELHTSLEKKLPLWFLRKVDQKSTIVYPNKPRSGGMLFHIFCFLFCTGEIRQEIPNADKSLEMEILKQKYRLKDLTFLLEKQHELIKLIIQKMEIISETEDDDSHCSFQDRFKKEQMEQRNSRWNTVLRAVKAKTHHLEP

TRPA1 [5] = biological target: T5, TRPA1; test: Citric acid-induced Ca+2 influx in hTRPA1/CHO cells; format: cell-based; set-up: expressed in transfected cells
Method: as §1
(§3) Fluorimetric and radiometric Ca^+2 influx assay was performed as described earlier. GRC 17536, GRC 17770, compound 7 or GRC 6211 was added to the cells 15 minutes prior to addition of agonist. Citric acid stock solution (1 M) was prepared in dH2O. Subsequent dilutions were made in Ca^+2, Mg^+2 free PBS (pH 7.3). No significant change in pH was observed upto 10 mM citric acid. At 30 mM concentration of citric acid, the pH of the solution dropped to 5.5. TLR ligands - LPS (10 µg/ml, TLR4), loxoribine (10 µM, TLR7) and ssRNA40 (1 µg/ml, TLR8) were dissolved in media and added to the cells for 16–18 hours. TRP selectivity of GRC 17536 and compound 7 was performed for TRPV1, TRPV3, TRPV4 and TRPM8 using Capsaicin (1 µM), 2-APB (1 mM), 4α-PDD (30 µM) and Icilin (250 nM) respectively, as agonist.

TRPA1 [6] = biological target: T5, TRPA1; test: TLR ligand-enhanced 45Ca+2 uptake in hTRPA1/CHO cells; format: cell-based; set-up: expressed in transfected cells
Method: as §1, §3

TRPA1 [7] = biological target: T5, TRPA1; test: Citric acid-induced Ca+2 influx in CCD19-Lu cells; format: cell-based; set-up: A549 cells have been reported to express endogenous TRPA1; host or cells: A549
Method: as §1, §3

TRPA1 [8] = biological target: T5, TRPA1; test: Citric acid-induced Ca+2 influx in A549 cells; format: cell-based; set-up: A549 cells have been reported to express endogenous TRPA1; host or cells: A549
Method: as §1, §3

TRPA1 [9] = biological target: T5, TRPA1; test: TLR ligand-enhanced 45Ca+2 uptake in A549 cells; format: cell-based; set-up: A549 cells have been reported to express endogenous TRPA1; host or cells: A549
Method: as §1, §3

TRPA1 [10] = biological target: T5, TRPA1; set-up: A549 cells have been reported to express endogenous TRPA1; host or cells: A549; method as in PMID 21848366; details: A549 cells; read-out: IC50 with AITC as agonist; cited from earlier work
TRPA1 mRNA = test: Real-time RT-PCR of TRPA1 mRNA in hTRPA1/CHO cells; format: cell-based, human; details: pre-incubation with TLR ligand
Method: Total RNA was extracted from hTRPA1/CHO cells using TRI reagent (Sigma, St. Louise, MO, USA). 3 µg of RNA was reverse transcribed using iScript select cDNA synthesis kit (Biorad Hercules, CA, USA) according to the manufacturer's instructions to produce single-stranded cDNA. RT-PCR was performed with an real-time thermal cycler Eppendorf Mastercycler Ep (Eppendorf AG, Hamburg, Germany) using iTaq SYBR Green Supermix with ROX kit (Biorad Hercules, CA, USA) with human TRPA1 specific primers: 5′-[…]-3′(sense primer) and 5′-CTTTTATGTCTACTTG GGCACCTT-3′(antisense primer). RT-PCR reaction was carried out for 40 cycles at 94°C for 30 s, 60°C for 15 s and 60°C for 60 s. Data was interpreted using 2^(-ΔΔCT) Livak method of analysis.

TRPV1 [11] = biological target: T1, TRPV1; test: Citric acid effect on Ca+2 influx in hTRPV1/CHO cells; format: cell-based; details: data not shown
Method: as §1, §2

[12] = antagonist added 15 minutes prior to agonist, read-out: IC50, inhibition of citric acid induced Ca+2 influx
[13] = highest concentration of inducer, one range printed for CCD19-Lu and A549 together

T1 sequence (Q8NER1 whole entry): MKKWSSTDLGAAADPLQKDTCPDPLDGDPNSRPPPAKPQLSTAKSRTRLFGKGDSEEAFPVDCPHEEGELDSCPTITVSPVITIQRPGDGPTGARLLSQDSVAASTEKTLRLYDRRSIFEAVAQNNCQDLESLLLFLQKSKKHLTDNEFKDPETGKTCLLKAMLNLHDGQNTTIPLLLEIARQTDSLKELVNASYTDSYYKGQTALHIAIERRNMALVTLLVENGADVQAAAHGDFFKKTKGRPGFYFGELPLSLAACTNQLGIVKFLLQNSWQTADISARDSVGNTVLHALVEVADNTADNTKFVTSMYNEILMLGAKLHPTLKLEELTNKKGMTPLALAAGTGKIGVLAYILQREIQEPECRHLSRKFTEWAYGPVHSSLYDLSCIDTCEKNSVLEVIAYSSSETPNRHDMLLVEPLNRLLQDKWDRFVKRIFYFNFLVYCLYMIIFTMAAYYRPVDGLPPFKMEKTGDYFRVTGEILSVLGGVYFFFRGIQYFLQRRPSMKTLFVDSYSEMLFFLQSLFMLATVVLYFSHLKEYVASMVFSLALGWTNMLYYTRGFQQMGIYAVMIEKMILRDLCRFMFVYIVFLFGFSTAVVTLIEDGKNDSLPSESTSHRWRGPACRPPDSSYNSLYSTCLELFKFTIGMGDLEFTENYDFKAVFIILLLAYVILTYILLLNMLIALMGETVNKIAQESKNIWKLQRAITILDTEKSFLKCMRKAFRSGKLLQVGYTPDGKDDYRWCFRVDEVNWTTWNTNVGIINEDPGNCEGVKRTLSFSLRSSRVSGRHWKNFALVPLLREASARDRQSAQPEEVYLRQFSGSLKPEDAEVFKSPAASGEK

SMILES: Cn1c(=O)c2c(CC(=O)Nc3nc(-c4ccc(F)c(C(F)(F)F)c4F)cs3)csc2n(C)c1=O [GRC 17536]
- % Inhibition at 1 µM, TRPV1 (TRPV1 [1]): 5.6%
- % Inhibition at 1 µM, TRPV3 (TRPV3): 27.3%
- % Inhibition at 1 µM, TRPV4 (TRPV4): 8.2%
- % Inhibition at 1 µM, TRPM8 (TRPM8): 8.6%
- Inhibition of cough response ([2]; 30 mg/kg i.p.): no significant protective response
- Inhibition of cough compared to vehicle ([2]; 60 mg/kg i.p.): 79%
- Inhibition of cough compared to vehicle ([2]; 100 mg/kg i.p.): 89%
- Free mean plasma concentration [3]: around its in vitro IC50 value
- IC50 (TRPA1 [4]): 2.71 nM
- IC50 (TRPA1 [5]; [12]): 4.6 nM
- Inhibition of LPS + AITC induced 45Ca+2 uptake (TRPA1 [6]; hTRPA1/CHO, 10 nM): 51.3%
- Inhibition of Loxoribine + AITC induced 45Ca+2 uptake (TRPA1 [6]; hTRPA1/CHO, 10 nM): 56.6%
- Inhibition of ssRNA40 + AITC induced 45Ca+2 uptake (TRPA1 [6]; hTRPA1/CHO, 10 nM): 63.0%
- Inhibition of TLR ligand-enhanced 45Ca+2 uptake (summary) (TRPA1 [6]; hTRPA1/CHO, 10 nM, stated for both cell types): ~50%
- Inhibition of 45Ca+2 uptake at the highest concentration (summary) (TRPA1 [6]; hTRPA1/CHO, 1 µM): Complete inhibition
- Inhibition of LPS + AITC induced 45Ca+2 uptake (TRPA1 [6]; hTRPA1/CHO, 1 µM): 98.4%
- Inhibition of Loxoribine + AITC induced 45Ca+2 uptake (TRPA1 [6]; hTRPA1/CHO, 1 µM): 98.6%
- Inhibition of ssRNA40 + AITC induced 45Ca+2 uptake (TRPA1 [6]; hTRPA1/CHO, 1 µM): 96.1%
- IC50 (TRPA1 [7]; [12]): 8.2 nM
- IC50 (TRPA1 [8]; [12]): 5 nM
- Inhibition of LPS + AITC induced 45Ca+2 uptake (TRPA1 [9]; A549, 10 nM): 40.4%
- Inhibition of Loxoribine + AITC induced 45Ca+2 uptake (TRPA1 [9]; A549, 10 nM): 68.1%
- Inhibition of ssRNA40 + AITC induced 45Ca+2 uptake (TRPA1 [9]; A549, 10 nM): 53.2%
- Inhibition of TLR ligand-enhanced 45Ca+2 uptake (summary) (TRPA1 [9]; A549, 10 nM, stated for both cell types): ~50%
- Inhibition of 45Ca+2 uptake at the highest concentration (summary) (TRPA1 [9]; A549, 1 µM): Complete inhibition
- Inhibition of LPS + AITC induced 45Ca+2 uptake (TRPA1 [9]; A549, 1 µM): 95.3%
- Inhibition of Loxoribine + AITC induced 45Ca+2 uptake (TRPA1 [9]; A549, 1 µM): 97.4%
- Inhibition of ssRNA40 + AITC induced 45Ca+2 uptake (TRPA1 [9]; A549, 1 µM): 98.7%
- IC50 (TRPA1 [10]): 2.06 nM

SMILES: C=CCn1c(=O)n([C@@H]2O[C@H](CO)[C@@H](O)[C@H]2O)c2nc(N)[nH]c(=O)c21 [Loxoribine, reference compound]
- TRPA1 mRNA levels compared to control (TRPA1 mRNA): enhance TRPA1 expression
- Increase in 45Ca+2 uptake over AITC alone (TRPA1 [6]; hTRPA1/CHO, pre-treatment Loxoribine 10 µM or ssRNA40 1 µg/ml, 16-18 hours): 20%
- Increase in 45Ca+2 uptake by TLR ligand alone (TRPA1 [6]; ligand alone, no TRPA1 agonist, 'these cells', data not shown): did not show any increase
- Enhancement of AITC mediated 45Ca+2 uptake (TRPA1 [9]; A549 cells, TLR ligand pre-treatment 16-18 hours): 30%

SMILES: O=C(O)CC(O)(CC(=O)O)C(=O)O [citric acid]
- Ca+2 influx response to citric acid (TRPV1 [11]): lack of any significant response; also recorded: did not observe any increase
- Citric acid concentration of peak Ca+2 influx (TRPA1 [5]): 3 mM
- Citric acid concentration that elicited a drop in Ca+2 influx (TRPA1 [5]): 10 mM
- Ca+2 influx over basal (TRPA1 [5]; highest concentration of citric acid): ~40 fold
- Citric acid concentration of maximum Ca+2 influx (TRPA1 [7]): 10 mM
- Citric acid concentration that elicited a drop in Ca+2 influx (TRPA1 [7]): 30 mM
- Induction of Ca+2 influx over basal (TRPA1 [7]; [13]): 4–20 fold
- Citric acid concentration of peak Ca+2 influx (TRPA1 [8]): 3 mM
- Citric acid concentration that elicited a drop in Ca+2 influx (TRPA1 [8]): 5 mM
- Induction of Ca+2 influx over basal (TRPA1 [8]; [13]): 4–20 fold
